The values below come from PubChem BioAssay AID977607 (Broad Institute, 2014).

Each structure is given as a SMILES string.

For the assay, the system named is INS-1E GLuc insulin secretion reporter, luminescence, 2-3 h. Nature of the assay: activators of glucose-dependent insulin secretion, dose response, cell-based, INS-1E, Gaussia luciferase, luminescence, cherry-pick, set 2 (AID 977607).
As for `COc1ccc(S(=O)(=O)N2CCc3ccccc3C2)cc1OC`, the AC40 was 28.9 µM. The figure for `CCCCc1c(-c2ccccc2OC)ncn1C(C)c1ccc(Cl)cc1` (centres undefined) is 12.6 µM; for `FC(F)(F)c1cc(CCN2CCNC[C@@H]2Cc2ccccc2)cc(C(F)(F)F)c1` it is 17.8 µM. With `Cc1nn(-c2ccccc2)c2c1C(O)CC(C)(C)C2` (centres undefined) the figure was 3.51 µM.
